Reference: patent US8367658B2, “Pyrazin-2-yl-pyridin-2-yl-amine and pyrazin-2-yl-pyrimidin-4-yl-amine compounds and their use” (Cancer Research Technology Limited, priority 2007, dated 2013)
Several values for one entry are separate records, joined by “and”; a condition that tells them apart may be missing. Equal values may be shown once. Values belong to the molecule of their own block, whether it stands above or below them.

Target: T1, CHK1 (Homo sapiens, UniProt O14757)
T1 sequence (O14757 1-476): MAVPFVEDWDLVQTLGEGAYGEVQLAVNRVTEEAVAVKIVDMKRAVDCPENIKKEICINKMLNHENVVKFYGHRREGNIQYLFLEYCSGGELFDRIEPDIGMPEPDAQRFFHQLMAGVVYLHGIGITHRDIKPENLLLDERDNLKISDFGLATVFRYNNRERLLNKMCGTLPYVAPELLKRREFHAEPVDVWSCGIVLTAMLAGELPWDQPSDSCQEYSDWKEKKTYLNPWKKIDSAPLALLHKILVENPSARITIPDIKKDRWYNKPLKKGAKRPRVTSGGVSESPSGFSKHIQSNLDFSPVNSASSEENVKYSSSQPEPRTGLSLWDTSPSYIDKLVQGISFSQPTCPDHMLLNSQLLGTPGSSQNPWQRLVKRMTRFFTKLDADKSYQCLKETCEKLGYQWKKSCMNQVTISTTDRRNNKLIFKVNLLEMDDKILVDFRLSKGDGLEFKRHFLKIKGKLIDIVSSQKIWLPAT
Assay: CHK1 kinase function inhibition assay (DELFIA, phosphorylation of a CDC25C peptide)
Format: biochemical
Conditions: CHK1 1 nM, ATP 30 μM, 30 minutes at room temperature
Method in brief: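 Phosphorylation of a CDC25C peptide detected by DELFIA with a phospho-specific antibody. Kinase reaction ran 30 min at room temperature, was stopped with EDTA buffer, then captured on neutravidin-coated plates for 1 h before time-resolved fluorescence read-out with enhancement solution.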

SMILES: Cc1ccccc1-c1cnc(Nc2cnc(C#N)cn2)cc1NC1CCN(C)CC1 [Compound Y-121, 5-(4-(1-Methylpiperidin-4-ylamino)-5-o-tolylpyridin-2-ylamino)pyrazine-2-carbonitrile]
- IC50: 100 to 1000 nM

SMILES: COc1ccc(-c2cnc(Nc3cnc(C#N)cn3)cc2NC2CCNCC2)cc1 [Compound Y-122, 5-(5-(4-Methoxyphenyl)-4-(piperidin-4-ylamino)pyridin-2-ylamino)pyrazine-2-carbonitrile]
- IC50: ≤ 100 nM

SMILES: COC/C=C/c1cnc(Nc2cnc(C#N)cn2)cc1NC1CCN(C)CC1 [Compound Y-123, (E)-5-(5-(3-methoxyprop-1-enyl)-4-(1-methylpiperidin-4-ylamino)pyridin-2-ylamino)pyrazine-2-carbonitrile]
- IC50: ≤ 100 nM

SMILES: N#Cc1cnc(Nc2cc(NCC3CCNCC3)c(Cl)cn2)cn1 [Compound Y-124, 5-(5-chloro-4-(piperidin-4-ylmethylamino)pyridin-2-ylamino)pyrazine-2-carbonitrile]
- IC50: ≤ 100 nM

SMILES: COc1ccc(-c2cnc(Nc3cnc(C#N)cn3)cc2NCC2CCNCC2)cc1 [Compound Y-126, 5-(5-(4-Methoxyphenyl)-4-(piperidin-4-ylmethylamino)pyridin-2-ylamino)pyrazine-2-carbonitrile]
- IC50: ≤ 100 nM

SMILES: COCc1ccc(-c2cnc(Nc3cnc(C#N)cn3)cc2NCC2CCNCC2)cc1 [Compound Y-127, 5-(5-(4-(Methoxymethyl)phenyl)-4-(piperidin-4-ylmethylamino)pyridin-2-ylamino)pyrazine-2-carbonitrile]
- IC50: ≤ 100 nM

SMILES: CCOC(=O)c1cc(-c2cnc(Nc3cnc(C#N)cn3)cc2NCC2CCNCC2)cs1 [Compound Y-128, Ethyl 4-(6-(5-cyanopyrazin-2-ylamino)-4-(piperidin-4-ylmethylamino)pyridin-3-yl)thiophene-2-carboxylate]
- IC50: ≤ 100 nM

SMILES: N#Cc1cnc(Nc2cc(NCC3CCNCC3)c(-c3ccc(OCCO)cc3)cn2)cn1 [Compound Y-129, 5-(5-(4-(2-hydroxyethoxy)phenyl)-4-(piperidin-4-ylmethylamino)pyridin-2-ylamino)pyrazine-2-carbonitrile]
- IC50: ≤ 100 nM

SMILES: CS(=O)(=O)c1ccc(-c2cnc(Nc3cnc(C#N)cn3)cc2NCC2CCNCC2)cc1 [Compound Y-130, 5-(5-(4-(methylsulfonyl)phenyl)-4-(piperidin-4-ylmethylamino)pyridin-2-ylamino)pyrazine-2-carbonitrile]
- IC50: ≤ 100 nM

SMILES: CS(=O)(=O)c1cccc(-c2cnc(Nc3cnc(C#N)cn3)cc2NCC2CCNCC2)c1 [Compound Y-132, 5-(5-(3-(Methylsulfonyl)phenyl)-4-(piperidin-4-ylmethylamino)pyridin-2-ylamino)pyrazine-2-carbonitrile]
- IC50: 100 to 1000 nM

SMILES: COCCCOc1ccc(-c2cnc(Nc3cnc(C#N)cn3)cc2NCC2CCNCC2)cc1 [Compound Y-133, 5-(5-(4-(3-Methoxypropoxy)phenyl)-4-(piperidin-4-ylmethylamino)pyridin-2-ylamino)pyrazine-2-carbonitrile]
- IC50: 100 to 1000 nM

SMILES: N#Cc1cnc(Nc2cc(NCC3CCNCC3)c(-c3ccc4c(c3)OCCO4)cn2)cn1 [Compound Y-134, 5-(5-(2,3-Dihydrobenzo[b][1,4]dioxin-6-yl)-4-(piperidin-4-ylmethylamino)pyridin-2-ylamino)pyrazine-2-carbonitrile]
- IC50: 100 to 1000 nM

SMILES: COc1ccc(-c2cnc(Nc3cnc(C#N)cn3)cc2NCC2(F)CCNCC2)cc1 [Compound Y-136, 5-(4-((4-Fluoropiperidin-4-yl)methylamino)-5-(4-methoxyphenyl)pyridin-2-ylamino)pyrazine-2-carbonitrile]
- IC50: ≤ 100 nM

SMILES: COc1ccc(-c2cnc(Nc3cnc(C#N)cn3)cc2NCCC2CNCCO2)cc1 (stereo not drawn) [Compound Y-137, 5-(5-(4-methoxyphenyl)-4-(2-(morpholin-2-yl)ethylamino)pyridin-2-ylamino)pyrazine-2-carbonitrile]
- IC50: ≤ 100 nM

SMILES: N#Cc1cnc(Nc2cc(NCCC3CNCCO3)c(-c3ccccc3)cn2)cn1 (stereo not drawn) [Compound Y-138, 5-(4-(2-(Morpholin-2-yl)ethylamino)-5-phenylpyridin-2-ylamino)pyrazine-2-carbonitrile]
- IC50: ≤ 100 nM

SMILES: COC/C=C/c1cnc(Nc2cnc(C#N)cn2)cc1NCC1CCNCC1 [Compound Y-139, (E)-5-(5-(3-Methoxyprop-1-enyl)-4-(piperidin-4-ylmethylamino)pyridin-2-ylamino)pyrazine-2-carbonitrile]
- IC50: ≤ 100 nM

SMILES: COCCCc1cnc(Nc2cnc(C#N)cn2)cc1NCC1CCNCC1 [Compound Y-141, 5-(5-(3-methoxypropyl)-4-(piperidin-4-ylmethylamino)pyridin-2-ylamino)pyrazine-2-carbonitrile]
- IC50: ≤ 100 nM

SMILES: N#Cc1cnc(Nc2cc(NCC3CCNCC3)c(CCCCO)cn2)cn1 [Compound Y-142, 5-(5-(4-hydroxybutyl)-4-(piperidin-4-ylmethylamino)pyridin-2-ylamino)pyrazine-2-carbonitrile]
- IC50: 100 to 1000 nM

SMILES: N#Cc1cnc(Nc2cc(NCC3CCNCC3)c(C#CCO)cn2)cn1 [Compound Y-145, 5-(5-(3-Hydroxyprop-1-ynyl)-4-(piperidin-4-ylmethylamino)pyridin-2-ylamino)pyrazine-2-carbonitrile]
- IC50: ≤ 100 nM

SMILES: COCc1ccc(-c2cnc(Nc3cnc(C#N)cn3)cc2NC[C@@H]2CNCCO2)cc1 [Compound Y-148, (S)-5-(5-(4-(Methoxymethyl)phenyl)-4-(morpholin-2-ylmethylamino)pyridin-2-ylamino)pyrazine-2-carbonitrile]
- IC50: ≤ 100 nM

SMILES: COCCOc1ccc(-c2cnc(Nc3cnc(C#N)cn3)cc2NC[C@@H]2CNCCO2)cc1 [Compound Y-149, (S)-5-(5-(4-(2-Methoxyethoxy)phenyl)-4-(morpholin-2-ylmethylamino)pyridin-2-ylamino)pyrazine-2-carbonitrile]
- IC50: ≤ 100 nM

SMILES: COCC#Cc1cnc(Nc2cnc(C#N)cn2)cc1NC[C@@H]1CNCCO1 [Compound Y-154, (S)-5-(5-(3-Methoxyprop-1-ynyl)-4-(morpholin-2-ylmethylamino)pyridin-2-ylamino)pyrazine-2-carbonitrile]
- IC50: ≤ 100 nM

SMILES: COC(C)(C)C#Cc1cnc(Nc2cnc(C#N)cn2)cc1NC[C@@H]1CNCCO1 [Compound Y-155, (S)-5-(5-(3-Methoxy-3-methylbut-1-ynyl)-4-(morpholin-2-ylmethylamino)pyridin-2-ylamino)pyrazine-2-carbonitrile]
- IC50: ≤ 100 nM

SMILES: COCc1ccc(-c2cnc(Nc3cnc(C#N)cn3)cc2NC[C@H]2CNCCO2)cc1 [Compound Y-156, (R)-5-(5-(4-(Methoxymethyl)phenyl)-4-(morpholin-2-ylmethylamino)pyridin-2-ylamino)pyrazine-2-carbonitrile]
- IC50: ≤ 100 nM

SMILES: COCCOc1ccc(-c2cnc(Nc3cnc(C#N)cn3)cc2NC[C@H]2CNCCO2)cc1 [Compound Y-157, (R)-5-(5-(4-(2-Methoxyethoxy)phenyl)-4-(morpholin-2-ylmethylamino)pyridin-2-ylamino)pyrazine-2-carbonitrile]
- IC50: ≤ 100 nM

SMILES: COCCCc1cnc(Nc2cnc(C#N)cn2)cc1NC[C@H]1CNCCO1 [Compound Y-159, (R)-5-(5-(3-Methoxypropyl)-4-(morpholin-2-ylmethylamino)pyridin-2-ylamino)pyrazine-2-carbonitrile]
- IC50: ≤ 100 nM

Now from value to molecule:

- IC50: 1000 to 10000 nM
SMILES: c1cnc(Nc2cc(NCC3CCNCC3)ncn2)cn1 [Compound Z-004, N-(Piperidin-4-ylmethyl)-W-pyrazin-2-ylpyrimidine-4,6-diamine]

- IC50: 1000 to 10000 nM
SMILES: NCCCNc1cc(Nc2cnccn2)ncn1 [Compound Z-005, N-(3-Aminopropyl)-A-pyrazin-2-ylpyrimidine-4,6-diamine]

- IC50: 1000 to 10000 nM
SMILES: NCCCCNc1cc(Nc2cnccn2)ncn1 [Compound Z-006, N-(4-Aminobutyl)-N′-pyrazin-2-ylpyrimidine-4,6-diamine]

- IC50: 1000 to 10000 nM
SMILES: N#Cc1cnc(Nc2cc(N(CCN)CC(N)=O)ncn2)cn1 [Compound Z-009, 2-((2-Aminoethyl)(6-(5-cyanopyrazin-2-ylamino)pyrimidin-4-yl)amino)acetamide]

- IC50: ≤ 1000 nM and 100 to 1000 nM
SMILES: N#Cc1cnc(Nc2cc(NCCC[C@H](N)C(=O)Nc3ccccc3)ncn2)cn1 [Compound Z-010, (S)-2-Amino-5-(6-(5-cyanopyrazin-2-ylamino)pyrimidin-4-ylamino)-N-phenylpentanamide]

- IC50: ≤ 1000 nM and 100 to 1000 nM
SMILES: N#Cc1cnc(Nc2cc(NCCC[C@H](N)C(=O)NCc3ccccc3)ncn2)cn1 [Compound Z-011, (S)-2-Amino-N-benzyl-5-(6-(5-cyanopyrazin-2-ylamino)pyrimidin-4-ylamino)pentanamide]

- IC50: ≤ 1000 nM and 100 to 1000 nM
SMILES: N#Cc1cnc(Nc2cc(NC3CCNCC3)ncn2)cn1 [Compound Z-012, 5-(6-(Piperidin-4-ylamino)pyrimidin-4-ylamino)pyrazine-2-carbonitrile]

- IC50: 1000 to 10000 nM
SMILES: N#Cc1cnc(Nc2cc(N[C@H]3CCCNC3)ncn2)cn1 [Compound Z-013, (S)-5-(6-(Piperidin-3-ylamino)pyrimidin-4-ylamino)pyrazine-2-carbonitrile]

- IC50: 1000 to 10000 nM
SMILES: N#Cc1cnc(Nc2cc(N3CCOC(CN)C3)ncn2)cn1 (stereo not drawn) [Compound Z-014, 5-(6-(2-(Aminomethyl)morpholino)pyrimidin-4-ylamino)pyrazine-2-carbonitrile]

- IC50: 1000 to 10000 nM
SMILES: N#Cc1cnc(Nc2cc(N3CCC(C(N)c4ccccc4)CC3)ncn2)cn1 (stereo not drawn) [Compound Z-015, 5-(6-(4-(Amino(phenyl)methyl)piperidin-1-yl)pyrimidin-4-ylamino)pyrazine-2-carbonitrile]
